Laboratory results as given in patent EP2345639A1, “Cyclic hydroxylamine derivatives, their preparation and use as antioxidants” (ABIOGEN PHARMA S.p.A., priority 2009, dated 2011).
Where two headings read alike, the source gives them in different places.

Experiments:
[1] = test system: doxorubicin-induced cerebral oxidative stress in mice; assay: In vivo assay of cerebral oxidative stress induced in mice by doxorubicin (model and oxidized animals); conditions: for inhibition in vivo at 50 mg/kg / change in vivo at 50 mg/kg: Mus musculus; for inhibition in vivo at 50 mg/kg: overall, read-out: inhibition of the doxorubicin effect
Procedure: The assay was carried out on compounds (1)-(5) and (7)-(11) and on edaravone (E) as comparative compound.
10 mice were used for each treatment group. For each compound 50 mg/kg were administered intraperitoneally (IP) for three consecutive days (day 0, 1 and 2); half the animals (5) also received IP 16.7 mg/kg of doxorubicin immediately after the first treatment (day 0). On the day after the last administration (day 3) the animals were killed by neck dislocation and the brains were removed, weighed and frozen in liquid nitrogen.
For the analyses of oxidative stress, 100 mg/ml of brain homogenate was prepared in HEB^(*) buffer (pH 7.4 EDTA/HEPES^(**)) containing a mixture of enzyme inhibitors (Leupeptin, Pepstatin, Aprotinin, BHA).
The evaluation parameters were: • BrW/BWi: ratio between final brain weight and initial body weight (day 0); • Prot. Hmg: total proteins in the homogenate (BCA method, i.e. bicinchoninic acid); • Prot. Ox: oxidized proteins in the Hmg by means of a colorimetric method using dinitrophenylhydrazone (DNPH); • GSH: reduced glutathione in the supernatant (sn) of the Hmg, obtained after precipitation with metaphosphoric acid (MPA), by means of a colorimetric method using dithiodinitrobenzene (DTNB); • CAT: catalase in the Hmg by a colorimetric method using potassium dichromate; • SOD: superoxide dismutase by a colorimetric method using SOD Reagent (xanthine, EDTA, nitroblue tetrazole, Na2CO3, BSA, i.e. bovine serum albumin); • GST: glutathione S-transferase in the supernatant by a colorimetric method using chlorodinitrobenzene (CDNB) and GSH; and • GPx: glutathione peroxidase in the supernatant after addition of GSH and t-BuOOH, heating and precipitation with MPA; followed by GSH method with DTNB. The assay was performed on the compounds (1)-(5) and (7)-(11) and on edaravone (E), as comparative compound.
The mean effect (n=5 experiments) of doxorubicin (D), i.e. "oxidized" animal, relative to the vehicle (V), the vehicle representing the healthy animal.
All the parameters, with the exclusion of Brain/BWi and Prot. Hmg, were normalized for total Hmg proteins. The D value standard deviations and the % incidence relative to V are given in italics.
The effect of the tested compounds on the "oxidized" animals was given as % inhibition relative to the percentage change due to doxorubicin alone. The effect of the compounds on the oxidized animals can be expressed both as a function of the values of the vehicle (healthy, vehicle only) and as a function of the value of its own (healthy, compound only): • Vehicle: percentage [(Compound+D)/V]x100/[(V+D)/V]x100 • Its own: percentage [(Compound+D)/Compound]x100/[(V+D)/V]x100
Again in this case, the mean % effect relative to doxorubicin alone could be given for all the parameters simultaneously, as an approximate index of effectiveness on the cerebral oxidative state of the animal.

[2] = Brain-to-plasma concentration ratio in mice; type: in vivo, Female CD-1 mice; conditions: female, CD-1, mouse, ip, 25 mg/kg intraperitoneal, area under the curve of brain and plasma concentrations 0 to 60 minutes, read-out: B/P ratio
Procedure: The ability of the compounds of the invention to penetrate the brain was investigated by measuring their brain/plasma (B/P) ratio in mice following intraperitoneal administration.
Female CD-1 mice were used (n=3 for each time period) and received the compounds of the invention by intraperitoneal administration, in 25 mg/kg doses in a 0.5% NaHCO3 buffer (pH 8.3). At predefined intervals following said administration, i.e. 5, 15, 30 and 60 minutes, the mice were killed and both plasma and total brain tissue were collected.
Specifically, after anaesthesia with ether, the animals were bled by blood withdrawal from the abdominal aorta then immediately decapitated. The blood samples were collected into plasma separator tubes containing Li-Heparin as anticoagulant and centrifuged. The resulting plasma was then stored at -20 °C. The brain was rapidly removed from the cranium and weighed, subsequently frozen and stored at -20 °C before treatment by homogenization and HPLC analysis.
The plasma was thawed and mixed with an equal volume of the extraction solution.
1 ml of solution was then extracted by adding 20 µl of 70% HClO4, then centrifuged at 15,500g for 5 minutes and injected into the HPLC.
Each brain was thawed and homogenized with the extraction solution to provide a final composition of 4 ml/1g of tissue by means of an Ultra-Turrax blender and sonicated for 5 minutes. After centrifugation of the homogenate at 15,500g for 5 minutes, the resulting solution was treated with HClO4, as indicated for the plasma. Specific chromatographic conditions had been developed for each analyte, the calibration curve being constructed for plasma and brain homogenate.

female CD-1 mice = assay: Acute toxicity study, intraperitoneal, single dose; conditions: in vivo, Example 23
Procedure: This study was carried out with the purpose of investigating the toxicity of a single dose of the listed compounds administered to ICR (CD-1) female mice. According to the current OECD guideline no.
The mice used were all female and were treated by intraperitoneal injection administration. The animals were observed individually and regularly for the first 4 hours and within 24 hours after administration, and then twice a day for the whole observation period. As soon as the animals were stabilized, observations at the weekend were undertaken once only during the day.
The evaluated parameters included the survival, body weight development, variations in skin and fur, changes in ocular, conjunctival and buccal mucous membranes, changes in activities of the respiratory, circulatory, autonomous and central nervous systems, changes in somatomotor activity and in behaviour.
Any appearance of tremors, convulsions, salivation, diarrhea, lethargy, drowsiness and coma were attentively and regularly monitored. At the end of the observation period, a post-mortem was carried out on all the animals.

Structure (SMILES): CC1(C)CC(=O)C(C2COCCN2O)C(=O)C1 (stereo not shown) [(4), 2-(4-hydroxymorpholin-3-yl)-5,5-dimethylcyclohexane-1,3-dione]
- inhibition in vivo at 50 mg/kg ([1]; ip, compared with its own vehicle): ~85%
- inhibition in vivo at 50 mg/kg ([1]; ip, with respect to the vehicle): ≥ 50%
- change in vivo at 50 mg/kg ([1]; ip, oxidized mice, % inhibition relative to change due to doxorubicin alone, vs its own, read-out: Brain/BWi its own): -26.1%
- change in vivo at 50 mg/kg ([1]; ip, oxidized mice, % inhibition relative to change due to doxorubicin alone, vs its own, read-out: CAT/pr its own): -102%
- change in vivo at 50 mg/kg ([1]; ip, oxidized mice, % inhibition relative to change due to doxorubicin alone, vs its own, read-out: GPX/pr its own): -105%
- change in vivo at 50 mg/kg ([1]; ip, oxidized mice, % inhibition relative to change due to doxorubicin alone, vs its own, read-out: GSH/pr its own): -77.6%
- change in vivo at 50 mg/kg ([1]; ip, oxidized mice, % inhibition relative to change due to doxorubicin alone, vs its own, read-out: GST/pr its own): -147%
- change in vivo at 50 mg/kg ([1]; ip, oxidized mice, % inhibition relative to change due to doxorubicin alone, vs its own, read-out: Prot. Hmg its own): -106%
- change in vivo at 50 mg/kg ([1]; ip, oxidized mice, % inhibition relative to change due to doxorubicin alone, vs its own, read-out: Prot. Ox/pr its own): 19.2%
- change in vivo at 50 mg/kg ([1]; ip, oxidized mice, % inhibition relative to change due to doxorubicin alone, vs its own, read-out: SOD/pr its own): -68.5%
- change in vivo at 50 mg/kg ([1]; ip, oxidized mice, % inhibition relative to change due to doxorubicin alone, vs vehicle, read-out: Brain/BWi vehicle): -18.8%
- change in vivo at 50 mg/kg ([1]; ip, oxidized mice, % inhibition relative to change due to doxorubicin alone, vs vehicle, read-out: CAT/pr vehicle): -94.7%
- change in vivo at 50 mg/kg ([1]; ip, oxidized mice, % inhibition relative to change due to doxorubicin alone, vs vehicle, read-out: GPX/pr vehicle): -83.8%
- change in vivo at 50 mg/kg ([1]; ip, oxidized mice, % inhibition relative to change due to doxorubicin alone, vs vehicle, read-out: GSH/pr vehicle): -34.4%
- change in vivo at 50 mg/kg ([1]; ip, oxidized mice, % inhibition relative to change due to doxorubicin alone, vs vehicle, read-out: GST/pr vehicle): -120%
- change in vivo at 50 mg/kg ([1]; ip, oxidized mice, % inhibition relative to change due to doxorubicin alone, vs vehicle, read-out: Prot. Hmg vehicle): -80.7%
- change in vivo at 50 mg/kg ([1]; ip, oxidized mice, % inhibition relative to change due to doxorubicin alone, vs vehicle, read-out: Prot. Ox/pr vehicle): -4.1%
- change in vivo at 50 mg/kg ([1]; ip, oxidized mice, % inhibition relative to change due to doxorubicin alone, vs vehicle, read-out: SOD/pr vehicle): -28.7%
- change in vivo at 50 mg/kg ([1]; oxidized mice, 50 mg/kg IP x3 days + doxorubicin, computed as a function of its own (healthy, compound only), read-out: mean % effect relative to doxorubicin alone, all parameters (Its own)): -84.1%
- mean % effect relative to doxorubicin alone, all parameters (Vehicle) ([1]; oxidized mice, 50 mg/kg IP x3 days + doxorubicin, computed as a function of the vehicle): -58.1%
- Kp [2]: > 0.1
- toxic effect (female CD-1 mice): no toxic effect
